In patent US6905680B2, “Methods of treating HIV infected subjects” (Genetics Institute, Inc., priority 1994, dated 2005):

Columns and labels:
[1] = test system: CD28-induced IL-2 production; details: cited from earlier work
[2] = test system: CD4^+ T cells; experiment: Long term growth of CD4+ T cells with coated beads (Example 19); format: cell-based, human; details: CD4 and CD8^+ T cells
Procedure: CD28^+ T cells were divided into the CD4 and CD8^+ T cell subsets as described in Example 13. […] No cytokine or feeder cells were added to these cultures, and the cultures were maintained as described in Example 1.

[3] = test system: CD8^+ T cells; experiment: Lymphokine production by CD8+ T cells (Table 4); format: cell-based, human
From the text: (§1) To assess whether distinct T cell subsets might differentially respond to B7-1 or B7-2, CD28^+ T cells were divided into CD28^+CD4^+ and CD28^+CD8^+cells and into CD4^+CD45RO^+ and CD4^+CD45RA+subsets. To obtain CD28^+CD4^+ or CD28^+CD8^+ T cells, the CD28^+ T cells were subjected to a second round of negative selection using magnetic beads (Dynal) coated with CD8 or CD4 mAb as described in June et al. (1989) J. Immunol. 143:153. CD4^+CD45RO^+ and CD4^+CD45RA^+ subpopulations were isolated by subjecting CD28^+ T cells to negative selection using magnetic beads and anti-CD45RO monoclonal antibody UCHL1 or anti-CD45RA monoclonal antibody ALB11 (Immuntech). […]

[4] = test system: CD28^+ T cells; experiment: Lymphokine production by CD28+ T cells, ELISA 24 h (Table 3); format: cell-based, human; details: no CHO cells
Procedure: All values were assessed by using dilutions of culture supernatant that yielded read-outs within the linear portion of the standard curve. The cytokine production data is summarized below in Table 3.

[5] = test system: CD4^+ T cells; experiment: Lymphokine production by CD4+ T cells (Table 4); format: cell-based, human
From the text: as §1

[6] = molecular target: T1, human CD28 (human, UniProt P10747 19-220); experiment: immunofluorescence on Jurkat cells (CD28+ CTLA4-)
T1 construct: whole, on cells; also called CD28 on CHO-hh (CHO-HH) cells; CD28 on Jurkat #7 cells

Question: Which “effect on CD28-induced IL-2 production” value [1] does the source give for CO[C@H]1[C@@H](OC)C[C@H](C)[C@@H](OC)C2=CC(=O)C=C(NC(=O)/C(C)=C/C=C\[C@H](OC)[C@@H](OC(N)=O)/C(C)=C/[C@@H]1C)C2=O [herbimycin A] here?
Answer: can inhibit

Question: Which “time to death of the cells” value [2] does the source give for OKT3 only: beads coated with OKT3 alone here?
Answer: ≤ 1 week

Question: Which GM-CSF [3] does the source give for “αCD3 only: plastic immobilized anti-CD3 mAb (OKT3) alone” here?
Answer: 8900 pg/mL

Question: And the IFN-γ [3]?
Answer: 1620 pg/mL

Question: What about the IL-2 [3] of the same molecule?
Answer: 133 pg/mL

Question: And the GM-CSF [4]?
Answer: 280 pg/mL

Question: What about the IFN-γ [4] of the same molecule?
Answer: 280 pg/mL

Question: What about the IL-2 [4] of the same molecule?
Answer: <60 pg/mL

Question: What about the IL-4 [4] of the same molecule?
Answer: <20 pg/mL

Question: And the TNFα [4]?
Answer: 380 pg/mL

Question: And the GM-CSF [5]?
Answer: 9770 pg/mL

Question: What about the IFN-γ [5] of the same molecule?
Answer: 1270 pg/mL

Question: What about the IL-2 [5] of the same molecule?
Answer: 93 pg/mL

B1: human B7-2Ig fusion protein (Fc fusion)
chain: APLKIQAYFNETADLPCQFANSQNQSLSELVVFWQDQENLVLNEVYLGKEKFDSVHSKYMGRTSFDSDSWTLRLHNLQIKDKGLYQCIIHHKKPTGMIRIHQMNSELSVLANFSQPEIVPISNITENVYINLTCSSIHGYPEPKKMSVLLRTKNSTIEYDGIMQKSQDNVTELYDVSISLSVSFPDVTSNMTIFCILETDKTRLLSSPFSIELEDPQPPPDH
notes: not shown: Fc portion of human IgG1
Question: Does B1 bind [6]?
Answer: binds
